{"source": "ChEMBL document CHEMBL5625206", "about": "“Design, synthesis, and evaluation of novel pleuromutilin aryl acrylate derivatives as promising broad-spectrum antibiotics especially for combatting multi-drug resistant gram-negative bacteria” (Eur J Med Chem, 2023)", "key": {"Staphylococcus aureus [1]": {"tested_on": "Staphylococcus aureus", "assay": "Induction of cell damage in methicillin-resistant Staphylococcus aureus ATCC 33591 assessed as intracellular pH at 2 times MIC incubated for 30 mins by fluorescence based analysis (reference value: 6.34 +/- 0.10)", "type": "functional", "conditions": "0.5 h"}, "[2]": {"assay": "Toxicity in fasted male Sprague-Dawley rat assessed as body weight at 331 mg/kg, IG measured after 14 days (reference value: 311.2 +/- 13.6 g)", "type": "organism-based", "conditions": "in vivo, po, 336 h, time 14 day"}, "[3]": {"assay": "Toxicity in fasted female Sprague-Dawley rat assessed as relative kidney weight ratio at 224 mg/kg, IG measured for 14 days (reference value: 0.802 +/- 0.031)", "type": "organism-based", "conditions": "in vivo, po, 336 h, time 14 day"}, "[4]": {"assay": "Toxicity in fasted female Sprague-Dawley rat assessed as relative lung weight ratio at 100 mg/kg, IG measured for 14 days (reference value: 0.534 +/- 0025)", "type": "organism-based", "conditions": "in vivo, po, 336 h, time 14 day"}, "[5]": {"assay": "Toxicity in fasted male Sprague-Dawley rat assessed as relative spleen weight ratio at 100 mg/kg, IG measured for 14 days (reference value: 0.246 +/- 0.037)", "type": "organism-based", "conditions": "in vivo, po, 336 h, time 14 day"}, "[6]": {"assay": "MRT in fasted Sprague-Dawley rat at 1 mg/kg, iv by LC-MS/MS analysis", "type": "ADME, organism-based", "conditions": "in vivo"}, "Staphylococcus aureus [7]": {"tested_on": "Staphylococcus aureus", "assay": "Disruption of cell membrane integrity in methicillin-resistant Staphylococcus aureus ATCC 33591 assessed as increase in red fluorescence at 1 to 4 times MIC incubated for 2 hrs by MycoLight green JJ98/PI staining based analysis", "type": "functional, organism-based"}, "[8]": {"tested_on": "Mesomycoplasma hyopneumoniae", "assay": "Anti-mycoplasma activity against Mycoplasma hyopneumoniae J-NCYC10110 assessed as bacterial growth inhibition incubated for 7 days", "type": "functional", "conditions": "J-NCYC10110, 168 h, time 7 day"}, "[9]": {"assay": "Toxicity in fasted male Sprague-Dawley rat assessed as relative testis weight ratio at 148 mg/kg, IG measured for 14 days (reference value: 0.993 +/- 0.052)", "type": "organism-based", "conditions": "in vivo, po, 336 h, time 14 day"}, "Staphylococcus aureus [10]": {"tested_on": "Staphylococcus aureus", "assay": "Antibacterial activity against methicillin-resistant Staphylococcus aureus ATCC 33591 infected in neutropenic Kunming mouse model administered intraperitoneally measured after 7 days", "type": "functional", "conditions": "ATCC 33591, 168 h, route ip, time 7 day"}, "[11]": {"assay": "Toxicity in fasted female Sprague-Dawley rat assessed as relative spleen weight ratio at 148 mg/kg, IG measured for 14 days (reference value: 0.223 +/- 0.019)", "type": "organism-based", "conditions": "in vivo, po, 336 h, time 14 day"}, "[12]": {"tested_on": "Mesomycoplasma hyopneumoniae", "assay": "Anti-mycoplasma activity against Mycoplasma hyopneumoniae LH-NCTC10130 assessed as bacterial growth inhibition incubated for 7 days", "type": "functional", "conditions": "Mesomycoplasma hyopneumoniae, LH-NCTC10130, 168 h; time 7 day; read-out: MIC"}, "Staphylococcus aureus [13]": {"tested_on": "Staphylococcus aureus", "assay": "Antibacterial activity against methicillin-resistant Staphylococcus aureus ATCC 33591 infected in neutropenic Kunming mouse model assessed as reduction in infection-induced inflammatory cell infiltration in liver at 20 mg/kg, ip measured after 7 days", "type": "functional, organism-based", "conditions": "time 7.0 day"}, "[14]": {"assay": "Toxicity in fasted male Sprague-Dawley rat assessed as body weight at 224 mg/kg, IG measured after 7 days (reference value: 260.5 +/- 12.7 g)", "type": "organism-based", "conditions": "in vivo, po, 168 h, time 7 day"}, "[15]": {"assay": "Toxicity in fasted male Sprague-Dawley rat assessed as relative lung weight ratio at 500 mg/kg, IG measured for 14 days (reference value: 0.437 +/- 0.064)", "type": "organism-based", "conditions": "in vivo, po, 336 h, time 14 day"}, "[16]": {"assay": "Toxicity in fasted male Sprague-Dawley rat assessed as body weight at 500 mg/kg, IG measured after 14 days (reference value: 311.2 +/- 13.6 g)", "type": "organism-based", "conditions": "in vivo, po, 336 h, time 14 day"}, "[17]": {"assay": "Toxicity in fasted Sprague-Dawley rat assessed as mortality rate at 148 mg/kg, IG measured for 14 days", "type": "organism-based", "conditions": "in vivo, po, time 14 day"}, "[18]": {"assay": "Toxicity in Sprague-Dawley rat assessed as abnormal clinical symptoms at 10 to 100 mg/kg, IG measured for 14 days", "type": "organism-based", "conditions": "in vivo, po, 336 h, dose 10-100 mg/kg, time 14 day"}, "[19]": {"assay": "Toxicity in fasted female Sprague-Dawley rat assessed as body weight at 100 mg/kg, IG measured after 14 days (reference value: 214.3 +/- 9.8 g)", "type": "organism-based", "conditions": "in vivo, po, 336 h, time 14 day"}, "Staphylococcus aureus [20]": {"tested_on": "Staphylococcus aureus", "assay": "Inhibition of biofilm formation of methicillin-resistant Staphylococcus aureus ATCC 33591 at 8 times MIC incubated for 24 hrs by crystal violet staining based analysis relative to control", "type": "functional"}, "Escherichia coli [21]": {"tested_on": "Escherichia coli", "assay": "Induction of extracellular electrical conductivity in Escherichia coli ATCC 25922 at MIC incubated for 8 hrs relative to control", "type": "functional"}, "[22]": {"assay": "Toxicity in fasted male Sprague-Dawley rat assessed as relative liver weight ratio at 100 mg/kg, IG measured for 14 days (reference value: 3.616 +/- 0.286)", "type": "organism-based", "conditions": "in vivo, po, 336 h, time 14 day"}, "[23]": {"assay": "Toxicity in fasted female Sprague-Dawley rat assessed as relative lung weight ratio at 500 mg/kg, IG measured for 14 days (reference value: 0.534 +/- 0025)", "type": "organism-based", "conditions": "in vivo, po, 336 h, time 14 day"}, "[24]": {"assay": "Toxicity in fasted female Sprague-Dawley rat assessed as relative lung weight ratio at 224 mg/kg, IG measured for 14 days (reference value: 0.534 +/- 0025)", "type": "organism-based", "conditions": "in vivo, po, 336 h, time 14 day"}, "[25]": {"assay": "Toxicity in fasted female Sprague-Dawley rat assessed as relative heart weight ratio at 148 mg/kg, IG measured for 14 days (reference value: 0.429 +/- 0.016)", "type": "organism-based", "conditions": "in vivo, po, 336 h, time 14 day"}, "[26]": {"assay": "Toxicity in fasted male Sprague-Dawley rat assessed as relative spleen weight ratio at 331 mg/kg, IG measured for 14 days (reference value: 0.246 +/- 0.037)", "type": "organism-based", "conditions": "in vivo, po, 336 h, time 14 day"}, "Escherichia coli [27]": {"tested_on": "Escherichia coli", "assay": "Induction of cell damage in Escherichia coli ATCC 25922 assessed as intracellular pH at 2 times MIC incubated for 30 mins by fluorescence based analysis (reference value: 6.05 +/- 0.10)", "type": "functional", "conditions": "0.5 h"}, "[28]": {"assay": "Toxicity in fasted male Sprague-Dawley rat assessed as relative kidney weight ratio at 331 mg/kg, IG measured for 14 days (reference value: 0.820 +/- 0.072)", "type": "organism-based", "conditions": "in vivo, po, 336 h, time 14 day"}, "[29]": {"assay": "Toxicity in fasted female Sprague-Dawley rat assessed as relative kidney weight ratio at 148 mg/kg, IG measured for 14 days (reference value: 0.802 +/- 0.031)", "type": "organism-based", "conditions": "in vivo, po, 336 h, time 14 day"}, "[30]": {"assay": "Toxicity in fasted Sprague-Dawley rat assessed as mortality rate at 500 mg/kg, IG measured for 14 days", "type": "organism-based", "conditions": "in vivo, po, time 14 day"}, "Staphylococcus aureus [31]": {"tested_on": "Staphylococcus aureus", "assay": "Antibacterial activity against methicillin-resistant Staphylococcus aureus ATCC 33591 infected in neutropenic Kunming mouse model assessed as reduction in infection-induced inflammatory cell infiltration in kidney at 20 mg/kg, ip measured after 7 days", "type": "functional, organism-based", "conditions": "time 7.0 day"}, "[32]": {"assay": "Toxicity in fasted male Sprague-Dawley rat assessed as animal growth rate at 224 mg/kg, IG measured for 14 days (reference value: 46.53 +/- 3.19 g)", "type": "organism-based", "conditions": "in vivo, po, 336 h, time 14 day"}, "[33]": {"assay": "Cytotoxicity against human HepG2 cells incubated for 24 hrs by CCK8 assay", "type": "toxicity, cell-based"}, "Staphylococcus aureus [34]": {"tested_on": "Staphylococcus aureus", "assay": "Antibacterial activity against methicillin-resistant Staphylococcus aureus ATCC 33591 infected in neutropenic Kunming mouse model assessed as bacterial load reduction in kidney at 10 to 20 mg/kg, ip measured after 2 days", "type": "functional, organism-based", "conditions": "dose 10-20 mg/kg, time 2.0 day"}, "Escherichia coli [35]": {"tested_on": "Escherichia coli", "assay": "Induction of cell damage in Escherichia coli ATCC 25922 assessed as decrease in intracellular ATP concentration at 2 times MIC incubated for 30 mins by fluorescence based analysis relative to control", "type": "functional", "design": "scale not given: the % may be the effect or the level left", "conditions": "0.5 h"}}, "note": "Activity calls are given as the source filed them. No cut-off for these calls is given here."}
{"smiles": "C=C[C@]1(C)C[C@@H](OC(=O)COC(=O)/C=C/c2ccc(N(C)C)cc2)[C@]2(C)[C@H](C)CC[C@]3(CCC(=O)[C@H]32)[C@@H](C)[C@@H]1O", "values": [{"measurement": "pH", "setting": "Staphylococcus aureus [1]", "result": 2.75}, {"measurement": "Activity", "setting": "[2]", "result": 304.9, "unit": "g"}, {"measurement": "Ratio", "setting": "[3]", "result": 0.839}, {"measurement": "Ratio", "setting": "[4]", "result": 0.522}, {"measurement": "Ratio", "setting": "[5]", "result": 0.254}, {"measurement": "MRT", "setting": "[6]", "result": 42.6, "unit": "min"}, {"measurement": "Activity", "setting": "Staphylococcus aureus [7]", "result": "Active"}, {"measurement": "MIC", "setting": "[8]", "result": 8, "unit": "ng/mL"}, {"measurement": "Ratio", "setting": "[9]", "result": 0.99}, {"measurement": "ED50", "setting": "Staphylococcus aureus [10]", "result": 9.04, "unit": "mg/kg"}, {"measurement": "Ratio", "setting": "[11]", "result": 0.238}, {"measurement": "MIC", "setting": "[12]", "result": 2, "unit": "ng/mL"}, {"measurement": "Activity", "setting": "Staphylococcus aureus [13]", "result": "Active"}, {"measurement": "Activity", "setting": "[14]", "result": 257.1, "unit": "g"}, {"measurement": "Ratio", "setting": "[15]", "result": 0.399}, {"measurement": "Activity", "setting": "[16]", "result": 296.8, "unit": "g"}, {"measurement": "mortality at 336 h", "setting": "[17]", "result": 0, "unit": "%"}, {"measurement": "Activity", "setting": "[18]", "result": "Non-Toxic"}, {"measurement": "Activity", "setting": "[19]", "result": 214.6, "unit": "g"}, {"measurement": "inhibition (INH)", "setting": "Staphylococcus aureus [20]", "result": 97.64, "unit": "%"}, {"measurement": "Activity", "setting": "Escherichia coli [21]", "result": 15.45, "unit": "%"}, {"measurement": "Ratio", "setting": "[22]", "result": 3.623}, {"measurement": "Ratio", "setting": "[23]", "result": 0.503}, {"measurement": "Ratio", "setting": "[24]", "result": 0.531}, {"measurement": "Ratio", "setting": "[25]", "result": 0.447}, {"measurement": "Ratio", "setting": "[26]", "result": 0.235}, {"measurement": "pH", "setting": "Escherichia coli [27]", "result": 3.23}, {"measurement": "Ratio", "setting": "[28]", "result": 0.831}, {"measurement": "Ratio", "setting": "[29]", "result": 0.818}, {"measurement": "mortality at 336 h", "setting": "[30]", "result": 10, "unit": "%"}, {"measurement": "Activity", "setting": "Staphylococcus aureus [31]", "result": "Active"}, {"measurement": "Activity", "setting": "[32]", "result": 45.2, "unit": "%"}, {"measurement": "CC50 at 24 h", "setting": "[33]", "result": "> 200", "unit": "µM"}, {"measurement": "Activity", "setting": "Staphylococcus aureus [34]", "result": "Active"}, {"measurement": "Activity", "setting": "Escherichia coli [35]", "result": 67.87, "unit": "%"}]}
